# From paper PMC6315506 (Viruses, 2018)
# Legend:
# HIV-1/H5N1 pseudovirus = assay: organism not typed; type: cell-based, influenza A virus A/Goose/Qinghai/59/05 (H5N1); details: for inhibition at 10 µM: A549, 48 h, read-out: Inhibition HIV-1/H5N1; for Inhibition HIV/H5N1: 10 µM
# HIV-1/LASV pseudovirus = assay: microbe, parasite or virus in culture; type: cell-based; details: for inhibition at 10 µM: Human immunodeficiency virus 1, A549, 48 h, read-out: Inhibition HIV-1/LASV; for Inhibition HIV/LASV: 10 µM
# HIV-1/EBOV pseudovirus [1] = details: for Inhibition HIV/EBOV: 10 µM
# in vitro = details: human
# HIV-1/EBOV pseudovirus [2] = assay: organism not typed; details: A549, 48 h, read-out: Inhibition HIV-1/EBOV
# HIV-1/EBOV pseudovirus [3] = assay: microbe, parasite or virus in culture; details: Zaire ebolavirus, A549, read-out: IC50 (anti-HIV-1/EBOV)
# A549 cells = details: 10 µM
Structure (SMILES),inhibition at 10 µM (HIV-1/H5N1 pseudovirus),inhibition at 10 µM (HIV-1/LASV pseudovirus),SI (CC50/IC50) (HIV-1/EBOV pseudovirus [1]),CC50 (in vitro),viability at 10 µM (in vitro),inhibition at 10 µM (HIV-1/EBOV pseudovirus [2]),IC50 (HIV-1/EBOV pseudovirus [3]),Inhibition HIV/H5N1 (HIV-1/H5N1 pseudovirus),Inhibition HIV/LASV (HIV-1/LASV pseudovirus),Inhibition HIV/EBOV (HIV-1/EBOV pseudovirus [1]),Cell Viability (A549 cells)
CN(C)Cc1ccc(-c2cc3cc(Br)ccc3nc2-n2ccnc2)cc1 [SYL1711],38.3%,25.5%,58.9,242 µM,90.7%,98.7%,4.11 µM,,,,
COc1ccc(CC(O)(c2ccccc2CN(C)C)c2cc3cc(Br)ccc3nc2OC)cc1 (stereo not shown) [SYL1655],-17.2%,28.9%,49.9,132 µM,95.3%,90.3%,2.65 µM,,,,
COc1cccc(COc2nc3ccc(Br)cc3cc2-c2cccc(CN(C)C)c2)c1 [SYL1657],0.16%,25.8%,60.3,215 µM,93.9%,89.2%,3.56 µM,,,,
Brc1ccc2nc(OCc3cccc4ccccc34)c(-c3ccc(CNC45CC6CC(CC(C6)C4)C5)cc3)cc2c1 [SYL1683],21.7%,26.3%,80.3,235 µM,104%,95.7%,2.93 µM,,,,
COc1nc2ccc(Br)cc2cc1C(O)(CCc1ccccc1)c1ccccc1CN(C)C (stereo not shown) [SYL1654],8.04%,18.8%,44.7,222 µM,94.7%,84.8%,4.98 µM,,,,
COc1nc2ccccc2cc1C(O)(Cc1cccc(F)c1)c1ccccc1CN(C)C (stereo not shown) [SYL1640],-1.97%,-15.1%,64.3,190 µM,97.6%,79.1%,2.96 µM,,,,
COC1=Nc2ccccc2C(C2(c3ccccc3)CCN(C)CC2)C1C(=O)c1ccccc1 (stereo not shown) [SYL1660],3.34%,-26.6%,71.6,185 µM,106%,97.5%,2.58 µM,,,,
Brc1ccc2nc(OCc3cccc4ccccc34)c(-c3cnn(C4CCCCO4)c3)cc2c1 (stereo not shown) [SYL1658],36.9%,19.2%,12.7,110 µM,72.7%,77.4%,8.65 µM,,,,
COc1cccc(COc2nc3ccc(Br)cc3cc2-c2ccc(CN(C)C)cc2)c1 [SYL1707],,,,,,,,95.43%,78.74%,99.14%,80.79%
C[N+](C)(C)Cc1ccc(-c2cc3cc(Br)ccc3nc2OCc2cccc3ccccc23)cc1.[I-] [SYL1685],,,,,,,,65.25%,93.29%,99.90%,103.42%
CN(C)CCC=C(c1ccccc1)c1cc2ccccc2nc1Oc1cccc2ccccc12.Cl [SYL1627],,,,,,,,49.35%,87.33%,99.84%,89.09%
COc1nc2ccccc2cc1C(c1ccccc1)n1c(=O)n(CCCN(C)C)c2ccccc21 (stereo not shown) [SYL1625],,,,,,,,-0.36%,87.77%,99.90%,86.95%
CN1CCC(c2ccccc2)(C(O)(c2ccccc2)c2ccc3ccccc3c2)CC1 (stereo not shown) [SYL1644],,,,,,,,97.63%,92.36%,99.92%,78.35%
CN(C)Cc1ccc(-c2cc3ccccc3nc2OCc2cccc3ccccc23)cc1 [SYL1701],,,,,,,,98.51%,97.96%,99.94%,88.01%
COc1nc2ccccc2cc1C(O)(Cc1cccc(F)c1)c1ccccc1 (stereo not shown) [SYL1651],,,,,,,,30.01%,89.23%,99.95%,79.56%
COc1nc2ccccc2cc1C(c1ccccc1)C(O)(CC(=O)N(C)C)c1cccc2ccccc12 (stereo not shown) [SYL1642],14.1%,35%,29.2,152 µM,72.3%,92.2%,5.21 µM,,,,
CN1CCN(c2ccc(-c3cc4cc(Br)ccc4nc3OCc3cccc4ccccc34)cn2)CC1 [SYL1687],,,,,,,,31.90%,88.94%,99.94%,78.11%
COc1nc2ccc(Br)cc2cc1C(O)(Cc1cccc(F)c1)c1ccccc1CN(C)C (stereo not shown) [SYL1649],,,,,,,,79.45%,90.46%,99.90%,81.62%
CN(C)c1ncc2cc(-c3cc4cc(Br)ccc4nc3OCc3cccc4ccccc34)ccc2n1 [SYL1692],,,,,,,,-2.23%,11.86%,48.65%,87.98%
